Values quoted from earlier work as cited in US8592481B2 (Depomed, Inc., priority 2005, dated 2013).

Conditions: in vivo

## 1-(aminomethyl)cyclohexane acetic acid [gabapentin]
  circulating gabapentin bound to plasma proteins: 3%
